One assay relates to MV4-11 cells. The experiment in a line: Cellular proliferation assay (MTS), MV4-11. Conditions: Homo sapiens; MV4-11 cells, 72 hour incubation, MTS; read-out: Cellular Assay MV-proliferation IC50. Format: cell-based. The method, boiled down: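 FLT3-ITD MV4-11 cells, 10,000/well in DMEM with 0.5% serum, exposed to compounds 3 days at 37 °C, 5% CO2. Viability read colorimetrically after 2 h MTS tetrazolium reduction; WT-FLT3 RS4-11 cells (20,000/well, RPMI 0.5% serum, 2 days) serve as control.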

The next assay has as its target T1, CSF1R (Homo sapiens, UniProt P07333).
T1 construct: made in house
As to the kind of experiment: Binding constant (Kd) measurement, phage-displayed kinase competition binding assay, CSF1R. The method, boiled down: (§1)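 Competition binding used human kinases fused to T7 phage and immobilized ATP-site ligands. Compound binding blocks kinase capture on the solid support. Bound phage-kinase was quantified by plaque assay or qPCR of the phage genome to give Kd.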

Another assay concerns the target T2, KIT (Homo sapiens, UniProt P10721).
T2 construct: made in house
As to the kind of experiment: Binding constant (Kd) measurement, phage-displayed kinase competition binding assay, KIT. The method, boiled down:
as §1

The target in another assay is T3, FLT3 (Homo sapiens, UniProt P36888).
T3 construct: made in house
T3 sequence (P36888 27-993): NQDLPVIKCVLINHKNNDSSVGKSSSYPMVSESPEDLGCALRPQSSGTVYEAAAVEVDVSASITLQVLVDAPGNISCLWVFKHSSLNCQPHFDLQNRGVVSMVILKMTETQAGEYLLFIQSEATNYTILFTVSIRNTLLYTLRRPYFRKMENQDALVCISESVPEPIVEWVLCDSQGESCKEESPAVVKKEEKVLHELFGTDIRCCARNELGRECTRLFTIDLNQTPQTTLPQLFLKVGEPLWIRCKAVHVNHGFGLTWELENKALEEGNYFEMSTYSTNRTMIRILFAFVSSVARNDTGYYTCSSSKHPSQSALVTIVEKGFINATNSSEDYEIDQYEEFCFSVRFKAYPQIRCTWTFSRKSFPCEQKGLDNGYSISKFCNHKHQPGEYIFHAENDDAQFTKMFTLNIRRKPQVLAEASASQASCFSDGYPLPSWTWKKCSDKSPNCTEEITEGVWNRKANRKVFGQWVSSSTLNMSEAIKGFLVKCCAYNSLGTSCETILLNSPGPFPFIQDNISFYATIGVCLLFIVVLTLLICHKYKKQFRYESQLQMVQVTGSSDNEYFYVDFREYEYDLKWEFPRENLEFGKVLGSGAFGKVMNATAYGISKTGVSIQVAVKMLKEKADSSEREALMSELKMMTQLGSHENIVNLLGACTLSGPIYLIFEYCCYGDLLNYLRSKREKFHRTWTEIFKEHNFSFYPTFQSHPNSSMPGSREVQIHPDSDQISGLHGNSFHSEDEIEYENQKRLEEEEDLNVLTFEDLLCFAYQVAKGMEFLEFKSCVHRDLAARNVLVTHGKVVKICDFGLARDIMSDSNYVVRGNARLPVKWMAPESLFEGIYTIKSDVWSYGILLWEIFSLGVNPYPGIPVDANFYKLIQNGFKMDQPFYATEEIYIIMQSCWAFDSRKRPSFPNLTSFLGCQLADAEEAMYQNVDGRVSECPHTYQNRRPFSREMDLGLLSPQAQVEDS
The experiment in a line: Binding constant (Kd) measurement, phage-displayed kinase competition binding assay, FLT3. The method, boiled down: as §1

The mark [1] stands for this setting: read-out: Binding Assay FLT3 Kd.

As a reminder, the Kd is the equilibrium constant for the complex coming apart.

Where a name gives a salt, the structure may show the parent alone. Read-outs that look alike come from different tables or passages of the source. Where only a bound is given, the exact number is not on record here.

T2 sequence (P10721 26-976): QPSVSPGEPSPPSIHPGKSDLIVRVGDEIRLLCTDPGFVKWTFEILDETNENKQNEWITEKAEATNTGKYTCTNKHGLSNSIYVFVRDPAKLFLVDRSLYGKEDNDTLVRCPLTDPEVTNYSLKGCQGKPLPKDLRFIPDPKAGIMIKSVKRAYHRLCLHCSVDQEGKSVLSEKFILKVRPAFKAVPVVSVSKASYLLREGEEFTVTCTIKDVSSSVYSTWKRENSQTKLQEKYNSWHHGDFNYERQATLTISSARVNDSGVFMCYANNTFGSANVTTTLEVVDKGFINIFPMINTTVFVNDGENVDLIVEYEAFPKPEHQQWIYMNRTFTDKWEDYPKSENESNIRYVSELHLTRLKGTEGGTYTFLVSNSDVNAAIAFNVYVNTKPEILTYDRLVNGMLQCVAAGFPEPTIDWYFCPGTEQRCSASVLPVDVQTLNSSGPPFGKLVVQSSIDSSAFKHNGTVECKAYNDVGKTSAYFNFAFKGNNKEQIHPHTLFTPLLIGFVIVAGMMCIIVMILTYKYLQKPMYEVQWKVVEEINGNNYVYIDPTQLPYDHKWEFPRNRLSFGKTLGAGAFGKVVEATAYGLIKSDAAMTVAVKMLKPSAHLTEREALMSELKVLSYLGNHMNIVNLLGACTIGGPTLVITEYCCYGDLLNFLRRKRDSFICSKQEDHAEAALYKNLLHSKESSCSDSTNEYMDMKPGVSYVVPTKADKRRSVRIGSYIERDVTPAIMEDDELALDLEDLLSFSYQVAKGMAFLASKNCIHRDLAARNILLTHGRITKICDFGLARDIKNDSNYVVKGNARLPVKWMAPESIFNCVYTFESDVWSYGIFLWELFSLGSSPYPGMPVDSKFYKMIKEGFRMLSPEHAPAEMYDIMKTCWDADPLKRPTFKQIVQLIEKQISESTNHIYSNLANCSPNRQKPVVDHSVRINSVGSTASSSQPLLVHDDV
T1 sequence (P07333 20-972): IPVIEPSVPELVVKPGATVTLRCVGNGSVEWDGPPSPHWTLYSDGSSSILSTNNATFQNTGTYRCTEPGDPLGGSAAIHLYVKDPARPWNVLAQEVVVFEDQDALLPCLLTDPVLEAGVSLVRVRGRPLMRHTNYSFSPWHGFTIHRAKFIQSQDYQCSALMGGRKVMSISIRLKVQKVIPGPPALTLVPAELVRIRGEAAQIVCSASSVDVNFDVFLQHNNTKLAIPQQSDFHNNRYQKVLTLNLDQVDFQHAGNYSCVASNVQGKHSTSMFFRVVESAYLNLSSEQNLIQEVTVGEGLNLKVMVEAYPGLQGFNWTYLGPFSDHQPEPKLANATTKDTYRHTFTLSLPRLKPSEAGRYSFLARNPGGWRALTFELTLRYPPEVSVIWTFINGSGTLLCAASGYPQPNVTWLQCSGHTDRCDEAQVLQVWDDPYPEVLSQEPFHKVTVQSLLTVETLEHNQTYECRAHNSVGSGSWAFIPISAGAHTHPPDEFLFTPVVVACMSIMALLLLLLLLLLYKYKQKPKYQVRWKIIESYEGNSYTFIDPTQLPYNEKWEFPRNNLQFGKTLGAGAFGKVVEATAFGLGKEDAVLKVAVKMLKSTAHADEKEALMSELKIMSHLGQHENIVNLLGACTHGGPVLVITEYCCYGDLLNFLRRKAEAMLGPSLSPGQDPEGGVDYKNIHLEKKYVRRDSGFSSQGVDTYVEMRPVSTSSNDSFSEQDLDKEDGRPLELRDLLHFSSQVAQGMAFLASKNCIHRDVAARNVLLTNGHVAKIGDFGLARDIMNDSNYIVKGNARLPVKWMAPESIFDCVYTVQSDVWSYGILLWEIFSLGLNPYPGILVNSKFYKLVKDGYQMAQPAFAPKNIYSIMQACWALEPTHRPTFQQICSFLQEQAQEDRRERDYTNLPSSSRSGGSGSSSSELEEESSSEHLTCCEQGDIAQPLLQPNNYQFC

For the compound `CCN1CCN(CCc2ccc3c(c2)sc2nc(-c4ccc(NC(=O)Nc5cc(C(C)(C)C)on5)cc4)cn23)CC1` [Compound D7, 1-(5-tert-Butyl-isoxazol-3-yl)-3-(4-{7-[2-(4-ethyl-piperazin-1-yl)-ethyl]-imidazo[2,1-b][1,3]benzothiazol-2-yl}-phenyl)-urea hydrochloride], the IC50 in the assay on MV4-11 cells was below 10 nM. Also, the dissociation constant (Kd) at CSF1R, on KIT and at FLT3 was below 10 nM throughout.
Take `Cc1nc(-c2ccc(Cl)cc2)sc1C(=O)Nc1ccc(-c2cn3c(n2)sc2cc(OCCN4CCOCC4)ccc23)cc1` [Compound E4, 2-(4-chloro-phenyl)-4-methyl-thiazole-5-carboxylic acid {4-[7-(2-morpholin-4-yl-ethoxy)-benzo[d]imidazo[2,1-b]thiazol-2-yl]-phenyl}-amide]: the IC50 in the assay on MV4-11 cells lay within 10 to 100 nM. In addition, the dissociation constant Kd on CSF1R fell in the range of 100 to 1000 nM; on KIT, 100 to 1000 nM; at FLT3 (setting [1]), 10 to 100 nM.
For `CC(C)(C)c1cc(NC(=O)Nc2ccc(-c3cn4c(n3)sc3ccc(OCCN5CCOCC5)cc34)cc2)no1` [Compound B12, N-(5-tert-butyl-isoxazol-3-yl)-N′-{4-[6-(2-morpholin-4-yl-ethoxy)imidazo[2,1-b][1,3]benzothiazol-2-yl]phenyl}urea hydrochloride], the IC50 with MV4-11 cells is below 10 nM. The Kd at CSF1R is 100 to 1000 nM; at KIT it was 10 to 100 nM; on FLT3 (setting [1]) it was below 10 nM.
With `CC(C)(C)c1cc(NC(=O)Nc2ccc(-c3cn4c(n3)sc3cc(CCN5CCCCC5)ccc34)cc2)no1` [Compound D6, 1-(5-tert-Butyl-isoxazol-3-yl)-3-{4-[7-(2-piperidin-1-yl-ethyl)-imidazo[2,1-b][1,3]benzothiazol-2-yl]-phenyl}urea hydrochloride], in the assay on MV4-11 cells, the IC50 is below 10 nM. The dissociation constant Kd at CSF1R, at KIT and on FLT3 was below 10 nM each time.
For `CC(C)(C)c1cc(NC(=O)Nc2ccc(-c3cn4c(n3)sc3cc(CCC(=O)NCCN5CCOCC5)ccc34)cc2)no1` [Compound C9, 3-(2-{4-[3-(5-tert-butyl-isoxazol-3-yl)-ureido]-phenyl}-benzo[d]imidazo[2,1-b]thiazol-7-yl)-N-(2-morpholin-4-yl-ethyl)-propionamide hydrochloride], the IC50 in the assay with MV4-11 cells was below 10 nM. In addition, the Kd on CSF1R, on KIT and on FLT3 (setting [1]) was below 10 nM throughout.

The values above are taken from patent US8921546B2, “Imidazolothiazole compounds for the treatment of disease” (Ambit Biosciences Corporation, priority 2006, dated 2014).
